Measurements from patent US6124431A, “Peptide derivatives” (Teikoku Hormone Mfg. Co., Ltd., priority 1993, dated 2000).

Tested on: mouse leukemia P388 cells
Test: Assay of antitumor activity (increase in life span of mice implanted with P388 leukemia)
Type: in vivo
Settings: CDF1 mice, P388 cells implanted i.p.; compound i.p. on day 1 and day 5; observed for 60 days; ILS relative to dolastatin 10 = 100
Procedure: (1) Assay of antitumor activity
0.1 ml (10^6 cells/mouse) portions of mouse leukemia P388 cells were implanted intraperitoneally into 7-week-old CDF1 mice. […] From the results were calculated increases in life span (ILS, %) according to the following equation. In the following equation, T means median survival days of the chemical administration group, and C means median survival days of the control group. [formula]
Antitumor activity is shown as the relative ratio in the case where the ILS of dolastatin 10 is supposed to be 100.

Substance: dolastatin 10
- Antitumor activity (relative ratio of ILS, ILS of dolastatin 10 supposed to be 100): 100
